test system: pancreatin (Panzytrat 40,000); test: Cleavage experiments with pancreatin in water, followed by acid number; conditions: individual esters in pure form, 50° C.
Protocol: The pancreatin is used in the form of the commercially available product Panzytrat® 40,000 from the Allergan company. The whole mixture is stirred on a hot plate at 50° C.; the course of the reaction is determined and monitored by continuously recording the acid number over time.

Substance | cleavage by pancreatin to free 3-hydroxybutyric acid (3-BHB-FS)
3-hydroxybutyric acid di-diglycerol ester | cleaved by pancreatin to the free 3-hydroxybutyric acid
3-hydroxybutyric acid mono-diglycerol ester | cleaved by pancreatin to the free 3-hydroxybutyric acid
3-hydroxybutyric acid tri-diglycerol ester | cleaved by pancreatin to the free 3-hydroxybutyric acid

— patent US20230020342A1, “METHOD FOR PRODUCING POLYOL-BASED ESTERS, IN PARTICULAR POLYGLYCEROL ESTERS, FROM HYDROXY CARBOXYLIC ACIDS” (IOI Oleo GmbH, priority 2019, published 2023)
